Consider eight molecules from ChEMBL document CHEMBL1201862, “PubChem BioAssay data set” (2004).

Common to all, as to assay: DTP human tumour cell line panel, 48 h
The test system of experiment [1] is SK-MEL-28.
For experiment [2], the system named is LOX IMVI.
For experiment [3], the system named is NCI-H522.
In experiment [4] the test system is HCT-116.
Experiment [5] has as its system T47D.
Experiment [6] deals with NCI-H226.
The subject of experiment [7] is SR.
Experiment [8] concerns SK-OV-3.
Experiment [9] deals with CCRF-CEM.
Experiment [10] relates to HCT-15.
Experiment [11] deals with SN12C.
Experiment [12] deals with A498.
The subject of experiment [13] is DU-145.
Experiment [14] concerns SF-268.
The subject of experiment [15] is SF-295.
In experiment [16] the test system is HL-60.
Experiment [17] has as its system KM12.
The test system of experiment [18] is UO-31.
Experiment [19] concerns MCF7.
Experiment [20] has as its system SK-MEL-5.

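Compound exposure: 48 hours, 5 concentrations, 96-well plates. The concentration for 50% growth inhibition is given as GI50.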 Calls of active or inactive are those of the source. Rule as the data show it: active = GI50 up to about 1.1 µM and inactive = higher. Some results are limits rather than exact numbers.

With `Cc1ccc(C)c(COCCOCn2cc(Br)c(N)nc2=O)c1`, the GI50 in experiment [1], in [2], in experiment [3], in experiment [4], in experiment [5] and in [6] was > 100 µM (inactive) throughout. The GI50 in experiment [7] was > 100 µM (inactive); in [8], > 100 µM (inactive); in [9], > 100 µM (inactive); in experiment [10], over 100 µM; in [11], > 100 µM (inactive); in [12], > 100 µM (inactive). Also, the GI50 is > 100 µM (inactive) in [13]; > 100 µM (inactive) in experiment [14]; > 100 µM (inactive) in experiment [15]; 14 µM (inactive) in [16]; > 100 µM (inactive) in experiment [17]; > 100 µM (inactive) in experiment [18]. The GI50 in [19] was > 100 µM (inactive).
Consider `O=c1[nH]c2ccc(Cl)cc2o1`, for which the GI50 in experiment [2] was > 100 µM (inactive); in [3] it was 96.4 µM (inactive); in experiment [4] it was > 100 µM (inactive); in [5], > 100 µM (inactive); in [6], > 100 µM (inactive); in experiment [7] it was > 100 µM (inactive). For the same molecule, the GI50 was > 100 µM (inactive) in experiment [20]; > 100 µM (inactive) in [8]; > 100 µM (inactive) in experiment [9]; over 100 µM in [10]; > 100 µM (inactive) in experiment [11]; > 100 µM (inactive) in experiment [12]. Also, the GI50 in experiment [13], in [14], in experiment [15], in experiment [16], in [17] and in experiment [18] was > 100 µM (inactive) throughout. In experiment [19], the GI50 is > 100 µM (inactive).
For the molecule `COC(=N)C12C(N)=NC(OC)(OC)C1(C#N)C21C(=O)N(c2ccccc2)N=C1C` (stereo not drawn), the GI50 in experiment [1] is > 100 µM (inactive); in [3] it was > 100 µM (inactive); in [4] it was > 100 µM (inactive); in experiment [5], > 100 µM (inactive); in experiment [6], > 100 µM (inactive); in experiment [7], 37.6 µM (inactive). In addition, the GI50 in experiment [8] is > 100 µM (inactive); in experiment [9], 36.2 µM (inactive); in [10] it was over 100 µM; in experiment [11], > 100 µM (inactive); in experiment [12], > 100 µM (inactive); in [13], > 100 µM (inactive). In addition, the GI50 in experiment [14], in experiment [15], in [16], in experiment [17], in experiment [18] and in [19] was > 100 µM (inactive) throughout.
`COc1cc(/C=C2\CCC(C)C3C2=NN(C(C)=O)C3c2cc(OC)c(OC)c(OC)c2)cc(OC)c1OC` (stereo not drawn): the GI50 is 6.93 µM (inactive) in [1]; > 100 µM (inactive) in experiment [2]; 5.09 µM (inactive) in experiment [3]; > 100 µM (inactive) in experiment [4]; 9.86 µM (inactive) in experiment [5]; > 100 µM (inactive) in experiment [6]. Further, the GI50 in experiment [7] is > 52.6 µM (inactive); in [20] it was > 57 µM (inactive); in experiment [8] it was > 100 µM (inactive); in experiment [9], > 100 µM (inactive); in experiment [10], 99.8 µM; in experiment [11], > 100 µM (inactive). Besides, the GI50 in [12] was > 100 µM (inactive); in experiment [13], > 100 µM (inactive); in [14], > 85.1 µM (inactive); in experiment [15] it was > 100 µM (inactive); in [16] it was > 91.6 µM (inactive); in experiment [17] it was > 33 µM (inactive). Further, the GI50 in [19] is > 77.6 µM (inactive).
With `Cc1cc2c(O)c(c1)COCc1cc(C)cc(c1O)COCc1cc(C)cc(c1O)COC2`, the GI50 in [1] was > 100 µM (inactive); in [3], 49.2 µM (inactive); in [4] it was 32.7 µM (inactive); in experiment [5], > 100 µM (inactive); in experiment [6] it was > 100 µM (inactive); in experiment [7] it was 91 µM (inactive). Moreover, the GI50 was > 100 µM (inactive) in [8]; 32.1 µM (inactive) in [9]; over 100 µM in experiment [10]; > 100 µM (inactive) in [11]; > 100 µM (inactive) in experiment [12]; > 100 µM (inactive) in experiment [13]. Moreover, the GI50 in experiment [14], in [15], in experiment [16], in experiment [17], in experiment [18] and in experiment [19] was > 100 µM (inactive) in each case.
For `O=C(c1ccccc1)N1N=C(C(F)(F)F)CC1(O)C(F)(F)F` (stereo not drawn), the GI50 in experiment [1], in [2], in [3], in experiment [4], in [5] and in experiment [6] was > 100 µM (inactive) in each case. For the same molecule, the GI50 was > 100 µM (inactive) in experiment [7]; > 100 µM (inactive) in [9]; over 100 µM in experiment [10]; > 100 µM (inactive) in [11]; > 100 µM (inactive) in experiment [12]; > 100 µM (inactive) in experiment [13]. Besides, the GI50 in experiment [14], in experiment [15], in experiment [16], in experiment [17], in [18] and in experiment [19] was > 100 µM (inactive) each time.
Consider `CC(=O)Nc1ccc2c(C)c3c4ccccc4n(C)c3nc2n1`, for which the GI50 was 12.6 µM (inactive) in experiment [2]; 16.1 µM (inactive) in [3]; 7.1 µM (inactive) in experiment [4]; 18.4 µM (inactive) in [5]; 29.6 µM (inactive) in [6]; 10.6 µM (inactive) in experiment [7]. For the same molecule, the GI50 in experiment [20] is 9.29 µM (inactive); in [9] it was 18.7 µM (inactive); in experiment [10], 11.4 µM; in experiment [11], 16.4 µM (inactive); in [12] it was 18.1 µM (inactive); in [13], 21 µM (inactive). The GI50 in experiment [14] was 17.8 µM (inactive); in experiment [15], 19.9 µM (inactive); in experiment [16] it was 12.9 µM (inactive); in experiment [17], 11.9 µM (inactive); in [18] it was 11.4 µM (inactive); in experiment [19] it was 20.8 µM (inactive).
On to `CCn1sc2ccccc2c1=O`, for which the GI50 was 18.1 µM (inactive) in [1]; 2.61 µM (inactive) in experiment [2]; 1.6 µM (inactive) in experiment [3]; 14.8 µM (inactive) in [4]; 7.93 µM (inactive) in experiment [5]; 24.1 µM (inactive) in experiment [6]. Moreover, the GI50 in [7] is 1.95 µM (inactive); in experiment [20], 9.84 µM (inactive); in experiment [8], 36 µM (inactive); in [9], 1.87 µM (inactive); in experiment [10] it was 7.94 µM; in experiment [11] it was 5.32 µM (inactive). The GI50 is 37.8 µM (inactive) in experiment [12]; 20.4 µM (inactive) in [13]; 17.3 µM (inactive) in experiment [14]; 29.1 µM (inactive) in [15]; 3.78 µM (inactive) in [16]; 6.89 µM (inactive) in [17]. The GI50 in experiment [19] is 8.77 µM (inactive).
